The nature of data set [1]: Chemical stability in isotonic saline and phosphate buffer (Example A). The class given is physicochemical.
The nature of data set [2]: Stability in plasma (Example C). In kind it is in vitro ADME, rat. The note with it: 37°C, 5-8 hours, reverse phase HPLC.
Method: Methods: Compounds were incubated in plasma at 37°C, and aliqouts removed at appropriate time points over the course of 5-8 hours. The aliquots were extracted with 1.5 volumes of methanol and clarified by centrifugation. Supernatants were then evaporated to dryness and the residues reconstituted with 100 µL of isotonic saline and then analyzed by reverse phase HPLC.
Data set [3] concerns microsomal fraction of human liver. Kind of data set: Activation by human liver microsomes (Example E). The class given is in vitro ADME. The method, then:
7.1, 1.3, and 30.1 were tested for conversion to their respective parent compounds by the microsomal fraction of human liver.
(Liver microsomes are a subcellular fraction often used to study metabolism.)

The test system of data set [4] is isolated rat hepatocytes. Kind of data set: Activation to parent compound in isolated rat hepatocytes (Example I). As to conditions: 100 µM prodrug. The class given is cell-based. From the text: An ODS column was used for analysis. […] Detection was at 310 nm.
The subject of data set [5] is glucose production in isolated rat hepatocytes. Kind of data set: Inhibition of glucose production in rat hepatocytes (Example J). The class given is cell-based. As to conditions: Rattus norvegicus, Hepatocyte; 1 hour, lactate 10 mM / pyruvate 1 mM. The method, then: Select prodrugs of FBPase inhibitors were tested for inhibition of glucose production in isolated rat hepatocytes.
After a 10 minute equilibration period, lactate and pyruvate were added to 10 mM and 1 mM concentrations, respectively. Addition of gluconeogenic substrates was immediately followed by that of appropriate concentrations of test compound. After 1 hour, an aliquot (0.25 ml) was removed, transferred to an Eppendorf tube and centrifuged. The supernatant (50 µl) was then assayed for glucose content using a Glucose Oxidase kit (Sigma Chemical Co.) as per the manufacturer's instructions.

Data set [6] can be described thus: Delivery of parent compound to liver after intraperitoneal prodrug (Example U). The class given is in vivo, rat. As to conditions: 1.3 at 50 mg/kg i.p.; the last time point measured. The method, then:
Methods: 1.3 was dissolved in DMSO and administered intraperitoneally to fasted rats at a dose of 50 mg/kg. At various time points following drug administration, animals were anesthetized with halothane. The peritoneal cavity was then opened and a blood sample was obtained from the abdominal vena cava and the liver freeze-clamped and excised. Blood and liver samples were processed as described in Example P and analyzed for 6-Amino-9-neopentyl-8-(2-phosphonofuranyl)purine content as described in Example I.

The nature of data set [7]: Oral bioavailability by urinary excretion method (Example M). In kind it is in vivo. As to conditions: rat, urine, parent compound, read-out: % OBAV Parent.
Method: The oral bioavailability of prodrugs of a variety ofphosphonic acid FBPase inhibitors was estimated by a urinary excretion method in rat.
The quantity of parent compound excreted into urine was determined by HPLC analysis. An ODS column eluted with a gradient from potassium phosphate buffer, pH 5.5 to acetonitrile was employed for these measurements. Detection was at 310-325 nm.
For a further data set, the system named is human liver microsomes. Kind of data set: Identification of the p450 isozyme involved in activation, with specific p450 inhibitors (Example F). In kind it is in vitro ADME. As to conditions: 250 µM prodrug, ketoconazole, furafylline, sulfaphenazole as inhibitors. The method, then: Reactions were stopped by addition of methanol to a concentration of 60%, filtered (0.2 µM filter), and lyophilized. Samples were resuspended in HPLC buffer (10 mM phosphate pH 5.5, 2.5 mM octyl-triethyl-ammonium), loaded onto a YMC C8 HPLC column (250 x 4.6 mm), and eluted with a methanol gradient to 80%.

The next data set relates to recombinant CYP3A4. Kind of data set: Activation by recombinant CYP3A4 (Example G). As to conditions: 30.1 at 250 µM, 37°C, NADPH dependent, linear for 30 minutes. The class given is in vitro ADME. The method, then:
Activation of 30.1 and 28.4 was evaluated in reactions containing microsomes from baculovirus-infected insect cells co-expressing recombinant CYP3A4 and cytochrome p450 reductase (Panvera Corp., Madison, WI).
Methods: Reaction mixture composition was similar to that described in Example E. Reactions were terminated by addition of methanol to a final concentration of 60%, and products typically analyzed by HPLC with use of a YMC reverse phase C8 column (250 x 4.6 mm). […] The effluent was monitored at 254 nm.

Data set [8] is described as follows: Pharmacokinetics of 30.1 after intravenous dosing (Example N). In kind it is in vivo, rat. As to conditions: for half-life: 20 mg/kg. The method, then: The pharmacokinetics of 30.1 were evaluated in the rat.
Methods: 30.1 was administered at 20 mg/kg to fasted rats via the tail vein under light halothane anesthesia. At apropriate time points following drug administration, rats were re-anesthetized with halothane. The peritoneal cavity was then opened and a blood sample was obtained from the abdominal vena cava and the liver freeze-clamped and excised. Blood samples were briefly centrifuged and the plasma fraction was then extracted with 1.5 volumes of methanol, processed, and analyzed by HPLC as described in Example A. Liver samples were excised, frozed in liquid nitrogen, and then homogenized in 100% methanol. Liver extracts were then centrifuged at 14,000 rpm and the methanolic supernatants subsequently filtered and evaporated to dryness. Samples were resuspended in isotonic saline and analyzed by HPLC as described in Example A. Pharmacokinetic parameters were determined with the aid of WinNonLin version 1:1 (Scientific Consulting, Inc.) software. Renal excretions studies were performed as described in Example Q.

Data set [9] can be described thus: Liver ara-ATP and plasma/urine ara-hypoxanthine after intravenous dosing (Example O). The class given is in vivo, rat. The method, then:
The temporal profile of ara-hypoxanthine and ara-ATP generation following intravenous administration of 30.1 and free ara-AMP was compared in the rat.
Method: 30.1 and ara-AMP (Sigma) were administered to normal, fasted rats intravenously (in saline) via tail vein catheters. At appropriate time points following drug a administration, animals were lightly anesthetized with halothane. The peritoneal cavity was then opened and a blood sample was obtained from the abdominal vena cava and the liver freeze-clamped and excised.
The blood samples were heparinized and plasma was prepared. Plasma samples (100 µL) were mixed with 4 N perchloric acid (40 µL), vortexed, and then clarified by centrifugation. The supernatants were analyzed for ara-hypoxanthine by HPLC with use of a Beckman Ultrasphere ODS column (4.6 x 150 mm). The column was eluted with 100 mM acetic acid at a flow rate of 1.0 mL/min. The eluent was monitored by UV absorbance at 254 nm.
Livers were immediately homogenized in 3 volumes of 10% perchloric acid (w/w), and the extracts clarified by centrifugation at 2500 x g (5 minutes). The resulting supernatants were removed and neutralized with 0.3 volumes of 3M KOH/ 3M KHCO3. The neutralized liver extracts were then spun in an Eppendorf microfuge at 10,000 rpm (20 minutes, 4°C). The supernatants were analyzed for ara-ATP content by reverse phase HPLC (HP1050) using a Whatman Partisphere SA column (4.6 x 125 mm). A gradient from 0.3M ammonium phosphate buffer pH 3.5 to 0.8M ammonium phosphate pH 3.5 was run (1 ml/minute flow rate).
Renal excretion of araH following i.v. administration of 30.1 or ara-AMP was determined as described in Example Q.

Data set [10] is described as follows: Preliminary 22-day toxicological evaluation, intraperitoneal (Example R). In kind it is in vivo, mouse. The note with it: i.p. 10 and 100 mg/kg b.i.d. for 22 days, doses up to 200 mg/kg/d.
Excerpt: Death and other obvious signs of toxicity such as weight loss, tremors, ruffling fur, hunching, prostration, diarrhea, lethargy, and hyperactivity were monitored.
Data set [11] can be described thus: Activation in tissue homogenates, tissue distribution (Example T). In kind it is in vitro ADME, rat. As to conditions: liver cytosol, which does not contain microsomes. The method, then: 30.1 is tested for activation in homogenates from various tissues to assess the specificity of liver activation.
Methods: Rats are anaesthetized under halothane and tissues including liver, kidney, brain , heart, stomach, spleen, muscle, lung, and testis are excised and frozen in liquid nitrogen. Tissues are then homogenized in 1 to 3 volumes of 50 mM Tris/HCl, 154 mM KCl, 1 mM EGTA pH 7.4. The homogenate is centrifuged at 10,000 rpm and 4°C for 30 minutes and the supernatant recovered. Liver cytosol is prepared by centrifuging the liver crude extract for 1 hour at 40,000 rpm and 4°C. Reaction mixtures consist of 50 mM KH2PO4 pH 7.4, 13 mM glucose-6-phosphate, 2 mM NADP^+, 10 units of glucose-6-phosphate dehydrogenase, 100 µM 30.1 and tissue homogenate at a protein concentration of 8.5 mg/ml. Reactions are incubated at 37°C. Aliquots are taken after 0 and 1 hour of incubation, and extracted with 60 % methanol. The methanolic extracts are centrifuged at 14,000 rpm, and filtered prior to analysis by HPLC. The samples are loaded onto a YMC C8 column equilibrated with 0.1% TFA and eluted with a methanol gradient to 80%. The activation of 30.1 to ara-AMP is monitored at […]

Data set [12] deals with isolated rat hepatocytes. Kind of data set: Active drug metabolites formed after prodrug activation in isolated rat hepatocytes (Example K). As to conditions: Dose 100 µM, time point 2h.
Method: Methods: Hepatocytes were prepared and incubated as described in Example I. 28.4 and 30.1 and their respective parent compounds, PMEA and ara-AMP, were dissolved in DMSO or methanol to yield 10 mM stock solutions, and then diluted into the cell suspension to yield a final concentration of 100 µM. At appropriate time points over the course of 2-4 hours, aliquots of the cell suspension were removed and spun through a silicon/mineral oil layer into 10% perchloric acid. The cell extracts in the acid layers were neutralized by the addition of 0.3 volumes of 3M KOH/3M KHCO3, and the extract was then centrifuged, filtered (0.2 micron filter) and loaded onto an anion exchange HPLC column equilibrated with 70% A (10 mM ammonium phosphate pH 3.5, 6% ETOH) and 30% B (1 M ammonium phosphate pH 3.5, 6% ETOH). Ara-ATP and PMEApp were eluted with a gradient to 80% B. Detection was at 254 nm.

pIC50: −log10 of the molar value. “And” between values parts separate entries of the source, which are not always exact repeats. Identical values can stand only once. “Also recorded” adds a separate entry of the source. Like-named read-outs stand apart in the source and are kept apart here.

As a reminder, the pIC50 is the negative decadic logarithm of the IC50, by convention in mol/L. A higher pIC50 goes with a low IC50. For `CC(C)(C)Cn1c(-c2ccc(P3(=O)OC4CC(O)CC(C4)O3)o2)nc2c(N)ncnc21` (single isomer, unassigned) [Compound 1.3, 6-Amino-8-(5'-hydroxyl-1',3' cyclohexyl)phosphonofuranyl-9-neopentyl purine], in data set [1] (100 µM in phosphate buffer pH 7.4, 1 hour at room temperature), the “stability of 1.3” value is reported as “fully stable”. In addition, the “metabolism / degradation in fresh rat plasma” value in data set [2] is on record as “no evidence of metabolism”. For the same compound, in [3] (250 µM prodrug, 37°C, NADPH-generating system), the “rate of formation of parent compound” value was 0.55 nmoles/mg microsomal protein/minute. Besides, the “intrahepatocyte levels of parent compound 6-Amino-9-neopenhyl-8-(2-phosphonofuranyl)purine” value in the data set with isolated rat hepatocytes [4] is “similarly high levels”. In data set [5], the negative-log IC50 (pIC50) was 4.89. For the same compound, the “persistence of 6-Amino-9-neopentyl-8-(2-phosphonofuranyl)purine in plasma and liver” value in [6] turned out to be 4 h.
For the compound `CC(C)Cn1c(-c2ccc(P(=O)(O)O)o2)nc2ccc(Cl)cc21` [6-Chloro-1-isobutyl-2-(2-phosphono-5-furanyl) benzimidazole], the bioavailability at 24 h in [7] is 0.5%.
For orientation: half-life means the time in which the quantity being followed falls by half. As a reminder, the clearance is the volume of plasma or blood freed of the substance per unit of time. Low values mean inefficient removal, high ones efficient removal. As to `Nc1ncnc2c1ncn2[C@@H]1O[C@H](COP2(=O)OCCC(c3ccncc3)O2)[C@@H](O)[C@@H]1O` (stereo partly drawn) [Compound 30.1, Adenine-9-beta-D-arabinofuranoside-5'-[1-(4-pyridyl)-1,3-propyl]monophosphate], the “stability / decomposition of 30.1” value in data set [1] (10 µg/mL in isotonic saline and 100 mM potassium phosphate buffers pH 3, 7 and 9, room temperature, sampled 1, 2, 5, 7 days, HPLC) was “stable for at least seven days; also recorded: No decomposition”. The “metabolism / degradation in fresh rat plasma” value in data set [2] is “not degraded; also recorded: no evidence of metabolism”. Moreover, the “reaction rate for the formation of ara-AMP” value in data set [3] (250 µM 30.1, 37°C, human liver microsomes) is given as 0.12 nmoles/min/mg of microsomal protein. Moreover, the “primary p450 isoform responsible for activation in human liver” value in the data set with human liver microsomes is listed as “CYP3A4”. The “rate of formation of ara-AMP” value in the data set with recombinant CYP3A4 is on record as 3.3 ± 0.5 nmoles/ min/ nmole CYP3A4. The “concentration of prodrug observed in liver” value in data set [8] (20 mg/kg i.v., at 20 minutes) was ~ 20 nmoles/g. The half-life in data set [8] (rat, liver, iv, 20 mg/kg i.v., read-out: liver half life (converted)) was 54 min; in data set [8] (rat, plasma, iv, 20 mg/kg i.v., read-out: plasma half life (converted)) it was 11.4 min; in data set [8] (rat, plasma, iv, 30.1 in rat, restated in Example S, read-out: plasma half-life), 12 min. Besides, the clearance in [8] (rat, plasma, iv, 20 mg/kg i.v.) is 55.7 mL/min/kg. In addition, the MRT in [8] (rat, plasma, iv, 20 mg/kg i.v., read-out: mean residence time) came to 12.6 min. Moreover, in [8] (rat, plasma, iv, 20 mg/kg i.v., read-out: volume of distribution), the Vd was 0.7 L/kg. The dose excreted at 24 h in data set [8] (rat, urine, iv, 24 hr urine, read-out: urinary (renal) excretion (24hr)) is about 58%. Also, the “amount of araATP per gram of liver over time (Figure 1A)” value in data set [9] (30.1 i.v. 10 and 3 mg/kg vs araAMP 10 mg/kg) was “Significantly higher liver levels”. Besides, the ara-hypoxanthine in urine result in data set [9] (i.v. 30.1) is recorded as “Nor was ara-hypoxanthine detected in urine”. The “ara-hypoxanthine (araH) in plasma” value in data set [9] (i.v., 30.1 at 10 and 3 mg/kg, ara-AMP at equivalent doses) is given as “virtually no araH; also recorded: not detected”. Besides, the “liver levels of araATP relative to araA or araAMP” value in data set [9] (i.v., summary statements of Example O) was 2-5 fold and 2- to 5 fold. The “mortality and obvious signs of toxicity” value in [10] was “safely administered”. Besides, the “activation of 30.1 to ara-AMP” value in [11] is “does not result in activation”. Moreover, the “Product concentration nmoles/g cells (ara-ATP)” value in the data set with isolated rat hepatocytes [12] amounted to 108±4 nmoles/g cells.

For the origin of these results see patent EP1060182B1, “NOVEL PRODRUGS FOR PHOSPHORUS-CONTAINING COMPOUNDS” (Metabasis Therapeutics, Inc., priority 1998, dated 1999).
